SMILES strings stand for the structures.

Sequence of Acetylcholinesterase (P22303 whole entry): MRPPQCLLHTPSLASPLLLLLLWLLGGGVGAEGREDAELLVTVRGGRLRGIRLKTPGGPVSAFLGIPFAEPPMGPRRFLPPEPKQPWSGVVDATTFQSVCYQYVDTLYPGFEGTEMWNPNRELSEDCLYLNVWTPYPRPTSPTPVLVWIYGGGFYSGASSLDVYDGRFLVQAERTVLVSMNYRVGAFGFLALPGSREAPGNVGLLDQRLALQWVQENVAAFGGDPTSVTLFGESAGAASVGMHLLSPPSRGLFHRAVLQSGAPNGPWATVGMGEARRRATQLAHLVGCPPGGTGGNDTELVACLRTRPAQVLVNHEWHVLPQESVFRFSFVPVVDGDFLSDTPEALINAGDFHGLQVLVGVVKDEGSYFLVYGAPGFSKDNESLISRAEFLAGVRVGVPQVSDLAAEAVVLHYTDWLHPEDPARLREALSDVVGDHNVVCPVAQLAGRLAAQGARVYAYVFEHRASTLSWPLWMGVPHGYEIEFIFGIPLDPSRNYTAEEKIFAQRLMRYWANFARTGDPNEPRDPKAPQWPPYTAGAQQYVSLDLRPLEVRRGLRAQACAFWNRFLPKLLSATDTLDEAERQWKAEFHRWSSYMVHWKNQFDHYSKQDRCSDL

This test concerns the target Acetylcholinesterase (Homo sapiens, UniProt P22303). As to the kind of experiment: Inhibition of acetylcholinesterase (unknown origin) assessed as inhibition of acetylcholine hydrolysis after 30 mins by Ellmann's method.
For the compound `C/C=C1\[C@H]2C=C(C)C[C@]1(N[C@H]1OC(=O)C3=C4CC(C)(C)C[C@H]4[C@@H](C)[C@@H](O)C[C@]31OC)c1ccc(=O)[nH]c1C2`, the IC50 worked out at 990 nM.

`C/C=C1\[C@H]2C=C(C)C[C@]1(N[C@H]1OC(=O)C3=C4CC(C)(C)C[C@H]4[C@@H](C)[C@@H](O)C[C@]31O)c1ccc(=O)[nH]c1C2`: the IC50 was found to be 2170 nM.

Take `C/C=C1\[C@H]2C=C(C)C[C@]1(NC1OCC3=C4CC(C)(C)C[C@H]4[C@@H](C)[C@H](O)CC31O)c1ccc(=O)[nH]c1C2` (stereo not given in full): the IC50 stood at 110 nM.

With `C/C=C1\[C@H]2C=C(C)C[C@]1(NC1OCC3=C4CC(C)(C)[C@H](O)[C@H]4[C@@H](C)CCC31O)c1ccc(=O)[nH]c1C2` (stereo not given in full), the IC50 was determined as 60 nM.

On to `C/C=C1/[C@@H]2Cc3[nH]c(=O)ccc3[C@@]1(N)C[C@]1(C)O[C@H]21`, for which the IC50 amounted to 12100 nM.

For the origin of these results see ChEMBL document CHEMBL3352315, “Biotransformation of huperzine A by a fungal endophyte of Huperzia serrata furnished sesquiterpenoid-alkaloid hybrids” (J Nat Prod, 2014).
